Target: T1, ATP-citrate synthase (Homo sapiens, UniProt P53396)
T1 sequence (P53396 whole entry): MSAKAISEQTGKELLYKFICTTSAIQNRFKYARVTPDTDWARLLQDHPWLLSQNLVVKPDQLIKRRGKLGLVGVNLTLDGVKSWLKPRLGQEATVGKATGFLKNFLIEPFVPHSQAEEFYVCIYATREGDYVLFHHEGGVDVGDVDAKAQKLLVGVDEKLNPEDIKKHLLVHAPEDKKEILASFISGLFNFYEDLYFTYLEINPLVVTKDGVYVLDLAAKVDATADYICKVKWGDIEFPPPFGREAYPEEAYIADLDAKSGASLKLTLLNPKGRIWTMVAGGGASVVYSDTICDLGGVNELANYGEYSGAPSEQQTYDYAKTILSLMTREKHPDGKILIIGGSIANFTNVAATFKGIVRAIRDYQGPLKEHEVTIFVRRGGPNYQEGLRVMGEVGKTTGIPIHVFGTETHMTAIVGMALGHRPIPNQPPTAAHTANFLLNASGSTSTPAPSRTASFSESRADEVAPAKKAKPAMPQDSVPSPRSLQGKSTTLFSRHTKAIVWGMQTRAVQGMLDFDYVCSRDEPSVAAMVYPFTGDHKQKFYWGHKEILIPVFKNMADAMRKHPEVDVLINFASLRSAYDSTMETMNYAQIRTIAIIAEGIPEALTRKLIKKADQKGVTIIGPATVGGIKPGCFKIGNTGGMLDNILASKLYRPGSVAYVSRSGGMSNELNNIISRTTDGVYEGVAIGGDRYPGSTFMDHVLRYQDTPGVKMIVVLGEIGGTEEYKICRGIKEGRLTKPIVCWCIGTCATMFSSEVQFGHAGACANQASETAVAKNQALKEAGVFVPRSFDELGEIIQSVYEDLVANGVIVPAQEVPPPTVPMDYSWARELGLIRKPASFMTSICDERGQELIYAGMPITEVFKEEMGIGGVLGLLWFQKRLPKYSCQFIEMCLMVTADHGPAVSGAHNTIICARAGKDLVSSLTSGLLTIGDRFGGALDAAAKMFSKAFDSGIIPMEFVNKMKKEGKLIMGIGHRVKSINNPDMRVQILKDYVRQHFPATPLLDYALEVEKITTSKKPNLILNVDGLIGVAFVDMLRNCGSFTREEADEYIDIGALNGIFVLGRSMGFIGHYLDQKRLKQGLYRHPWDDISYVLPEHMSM
Test: Inhibition of ACL (unknown origin) incubated for 30 mins in presence of ATP by luminescence based ADP-Glo kinase assay

| SMILES | IC50 [µM] |
| --- | --- |
| C=C1CC[C@@](C)([C@H](C)CC(=O)C[C@](C)(C(=O)O)[C@]2(C(=C)C)C=C3CC[C@@H]4[C@](C)(CCC[C@@]4(C)C(=O)O)[C@H]3CC2)[C@@]12CCC1=C2CC[C@H]2C(C)(C)C(=O)CC[C@]12C | 11 |
| CC(C)C1=CC[C@H]2C(=C1)CC[C@@H]1[C@]2(C)CCC[C@@]1(C)C(=O)O | > 40 |
| C=C1CC[C@@](C)([C@H](C)CC(=O)C[C@]2(C(=O)O)C[C@H]3C[C@@H]4[C@@]5(C)CCC[C@@](C)(C(=O)O)[C@@H]5CC[C@]42C=C3C(C)C)[C@@]12CCC1=C2CC[C@@H]2[C@@H]1CC[C@H](O)C2(C)C | 7.1 |
| C=C1CC[C@@](C)([C@H](C)CC(=O)[C@H]2[C@H]3C[C@@H]4[C@@]5(C)CCC[C@@](C)(C(=O)O)[C@@H]5CC[C@@]4(C=C3C(C)C)[C@]2(C)C(=O)O)[C@@]12CCC1=C2CC[C@H]2C(C)(C)C(=O)CC[C@]12C | 4.1 |
| C=C1CC[C@@](C)([C@H](C)CC(=O)[C@H]2[C@H]3C[C@@H]4[C@@]5(C)CCC[C@@](C)(C(=O)O)[C@@H]5CC[C@]45C(OC(=O)[C@]25C)C3=C(C)C)[C@@]12CCC1=C2CC[C@H]2C(C)(C)C(=O)CC[C@]12C | 10.8 |

More lines, in order of falling IC50, values ahead:

| IC50 [µM] | SMILES |
| --- | --- |
| 34.9 | C=C1CC[C@@H]([C@H](C)CC(=O)/C=C(\C)C(=O)O)[C@@]12CCC1=C2CC[C@H]2C(C)(C)C(=O)CC[C@]12C |
| 22.8 | C=C1CC[C@@](C)([C@H](C)CC(=O)C[C@@](C)(C(=O)O)[C@]2(C(=C)C)C=C3CC[C@@H]4[C@](C)(CCC[C@@]4(C)C(=O)O)[C@H]3CC2)[C@@]12CCC1=C2CC[C@H]2C(C)(C)C(=O)CC[C@]12C |
| 6.2 | CC(C)C1=C[C@@]23CC[C@@H]4[C@](C)(CCC[C@@]4(C)C(=O)O)[C@H]2C[C@@H]1[C@H](C(=O)C[C@@H](C)[C@H]1CC[C@@]2(C)C4=C(CC[C@]12C)[C@H]1CCC(=O)C(C)(C)[C@@H]1CC4)[C@@]3(C)C(=O)O |
| 3.6 | C=C1CC[C@@](C)([C@H](C)CC(=O)[C@@H]2[C@H]3C[C@@H]4[C@@]5(C)CCC[C@@](C)(C(=O)O)[C@@H]5CC[C@@]4(C=C3C(C)C)[C@@]2(C)C(=O)O)[C@@]12CCC1=C2CC[C@H]2C(C)(C)C(=O)CC[C@]12C |
| 3.3 | C=C1CC[C@@](C)([C@H](C)CC(=O)C[C@@]2(C(=O)O)C[C@H]3C[C@@H]4[C@@]5(C)CCC[C@@](C)(C(=O)O)[C@@H]5CC[C@]42C=C3C(C)C)[C@@]12CCC1=C2CC[C@@H]2[C@@H]1CCC(=O)C2(C)C |
| 2.6 | CC(C)C1=C[C@@]23CC[C@@H]4[C@](C)(CCC[C@@]4(C)C(=O)O)[C@H]2C[C@@H]1C[C@@]3(CC(=O)C[C@@H](C)[C@H]1CC[C@@]2(C)C3=C(CC[C@]12C)[C@H]1CCC(=O)C(C)(C)[C@@H]1CC3)C(=O)O |
| 1.8 | C=C1CC[C@@](C)([C@H](C)CC(=O)C[C@]2(C(=O)O)C[C@H]3C[C@@H]4[C@@]5(C)CCC[C@@](C)(C(=O)O)[C@@H]5CC[C@]42C=C3C(C)C)[C@@]12CCC1=C2CC[C@@H]2[C@@H]1CCC(=O)C2(C)C |
| 0.46 | COc1ccc(-c2ccccc2)cc1NS(=O)(=O)c1cc(Cl)cc(Cl)c1O |

Reference: ChEMBL document CHEMBL5316374, “Forrestiacids E-K: Further [4 + 2]-Type Triterpene-Diterpene Hybrids as Potential ACL Inhibitors from the Vulnerable Conifer Pseudotsuga forrestii” (J Nat Prod, 2023)
